Source: US20090227607A1, “DEAZAPURINES USEFUL AS INHIBITORS OF JANUS KINASES” (priority 2006, published 2009)

How the values were obtained:
JAK-2 enzyme = JAK-2 enzyme (Homo sapiens, UniProt O60674); assay: JAK2 Inhibition Assay; type: biochemical; details: 15 μM poly(Glu)4Tyr, 12 μM ATP, 25° C.
How it was run: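 JAK2 kinase in HEPES pH 7.4 buffer with MgCl2, DTT, NaCl and BSA; final 15 μM poly(Glu)4Tyr and 12 μM [33P]ATP. Enzyme added to start, 20 min at 25 °C, TCA stop, filter capture and scintillation count of 33P incorporation; Ki values.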

JAK3 = biological target: T1, JAK3 (Homo sapiens, UniProt P52333); assay: JAK3 Inhibition Assay; type: biochemical; details: 1 μM poly(Glu)4Tyr, 5 μM ATP, 1 nM JAK3, 25° C.; read-out: JAK3 enzyme inhibition data (Ki)
T1 sequence (P52333 1-1124): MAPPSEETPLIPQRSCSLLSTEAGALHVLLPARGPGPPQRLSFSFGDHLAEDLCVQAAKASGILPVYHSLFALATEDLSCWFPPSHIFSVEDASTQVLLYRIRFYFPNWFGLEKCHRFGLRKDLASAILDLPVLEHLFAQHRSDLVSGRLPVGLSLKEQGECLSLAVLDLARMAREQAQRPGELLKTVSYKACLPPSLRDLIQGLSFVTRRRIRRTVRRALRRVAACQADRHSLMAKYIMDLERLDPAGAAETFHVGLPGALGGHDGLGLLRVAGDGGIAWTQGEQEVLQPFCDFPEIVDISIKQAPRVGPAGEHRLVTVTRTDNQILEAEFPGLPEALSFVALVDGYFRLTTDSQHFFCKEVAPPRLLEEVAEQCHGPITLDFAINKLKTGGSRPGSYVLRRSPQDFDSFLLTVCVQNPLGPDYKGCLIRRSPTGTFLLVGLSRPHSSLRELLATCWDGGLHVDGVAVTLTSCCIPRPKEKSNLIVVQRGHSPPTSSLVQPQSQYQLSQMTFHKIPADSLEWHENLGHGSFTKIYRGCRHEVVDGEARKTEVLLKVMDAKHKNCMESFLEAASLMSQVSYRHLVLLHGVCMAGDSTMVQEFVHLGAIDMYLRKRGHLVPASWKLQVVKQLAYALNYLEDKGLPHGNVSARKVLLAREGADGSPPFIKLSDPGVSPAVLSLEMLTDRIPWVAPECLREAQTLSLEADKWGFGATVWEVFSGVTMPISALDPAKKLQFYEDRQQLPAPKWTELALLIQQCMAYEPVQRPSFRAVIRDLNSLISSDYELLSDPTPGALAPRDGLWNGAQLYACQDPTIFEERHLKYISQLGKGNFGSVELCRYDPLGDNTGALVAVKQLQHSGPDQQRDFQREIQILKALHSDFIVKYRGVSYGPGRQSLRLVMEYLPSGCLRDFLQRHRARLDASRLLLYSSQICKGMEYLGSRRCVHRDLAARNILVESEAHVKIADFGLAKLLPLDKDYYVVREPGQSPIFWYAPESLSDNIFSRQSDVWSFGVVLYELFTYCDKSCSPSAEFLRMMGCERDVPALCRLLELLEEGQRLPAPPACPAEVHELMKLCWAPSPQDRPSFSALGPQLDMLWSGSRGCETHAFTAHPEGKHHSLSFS
How it was run: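 Radiometric JAK3 (1 nM) reaction with 5 μM [33P]ATP and 1 μM poly(Glu)4Tyr in HEPES pH 7.4 buffer, run for 20 min at 25 °C. Reactions were stopped with TCA and filter-captured, and 33P incorporation was counted; values reported as Ki.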

Sequence of JAK-2 enzyme (O60674 whole entry, species assumed): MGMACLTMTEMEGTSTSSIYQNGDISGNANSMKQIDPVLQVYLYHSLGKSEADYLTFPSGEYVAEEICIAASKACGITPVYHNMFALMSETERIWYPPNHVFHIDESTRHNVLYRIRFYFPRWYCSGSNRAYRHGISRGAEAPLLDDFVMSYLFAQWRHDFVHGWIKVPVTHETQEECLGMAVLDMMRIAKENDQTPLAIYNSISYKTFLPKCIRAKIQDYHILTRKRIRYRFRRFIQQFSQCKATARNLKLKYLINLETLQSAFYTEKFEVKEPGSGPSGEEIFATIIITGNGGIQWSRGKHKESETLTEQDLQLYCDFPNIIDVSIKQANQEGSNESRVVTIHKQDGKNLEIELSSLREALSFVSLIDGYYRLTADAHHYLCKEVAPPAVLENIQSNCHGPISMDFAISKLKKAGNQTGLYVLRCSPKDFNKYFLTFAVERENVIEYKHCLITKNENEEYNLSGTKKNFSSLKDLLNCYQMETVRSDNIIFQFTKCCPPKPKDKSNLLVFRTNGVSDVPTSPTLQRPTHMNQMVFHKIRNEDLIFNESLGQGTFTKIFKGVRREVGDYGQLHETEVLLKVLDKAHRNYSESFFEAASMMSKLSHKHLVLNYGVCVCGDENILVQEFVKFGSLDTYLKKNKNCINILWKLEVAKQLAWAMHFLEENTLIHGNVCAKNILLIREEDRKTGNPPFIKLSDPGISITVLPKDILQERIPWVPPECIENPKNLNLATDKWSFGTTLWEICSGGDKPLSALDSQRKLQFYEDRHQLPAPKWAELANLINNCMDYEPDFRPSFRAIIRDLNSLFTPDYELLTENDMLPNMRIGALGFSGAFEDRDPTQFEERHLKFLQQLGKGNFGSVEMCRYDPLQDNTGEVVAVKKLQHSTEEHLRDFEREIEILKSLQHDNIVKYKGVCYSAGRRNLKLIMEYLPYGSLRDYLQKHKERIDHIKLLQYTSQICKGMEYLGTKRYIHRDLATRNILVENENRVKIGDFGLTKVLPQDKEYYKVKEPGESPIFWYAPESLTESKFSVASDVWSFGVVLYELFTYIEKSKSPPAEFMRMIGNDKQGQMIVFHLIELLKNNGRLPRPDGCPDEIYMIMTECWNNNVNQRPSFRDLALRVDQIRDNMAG

Ki (JAK-2 enzyme)	Ki (JAK3)	SMILES
< 100 nM	< 100 nM	CN(CCC#N)C(=O)c1cc(-c2ncnc3[nH]ccc23)c[nH]1 [Compound 23]
100 to 500 nM	500 to 5000 nM	O=C(c1ccc(-c2ncnc3[nH]ccc23)o1)N1CCCC1 [Compound 219]
100 to 500 nM	500 to 5000 nM	CC#CCN(C(=O)c1cc(-c2ncnc3[nH]ccc23)c[nH]1)C1CCCCC1 [Compound 190]
< 100 nM	< 100 nM	CCN(C(=O)CC(C)C)c1nc(-c2ncnc3[nH]ccc23)cs1 [Compound 104]
100 to 500 nM	100 to 500 nM	O=C1[C@H]2CCCC[C@@H]2C(=O)N1c1nc(-c2ncnc3[nH]ccc23)cs1 [Compound 180]
< 100 nM	100 to 500 nM	O=C(c1coc(-c2ncnc3[nH]ccc23)c1)N(CC1CC1)CC(F)(F)F [Compound 195]
500 to 5000 nM	500 to 5000 nM	COCCNC(=O)C(C)n1cc(-c2ncnc3[nH]ccc23)cn1 (centres unmarked) [Compound 81]
< 100 nM	< 100 nM	CCC(C)n1cc(-c2ncnc3[nH]ccc23)cn1 (centres unmarked) [Compound 35]
100 to 500 nM	100 to 500 nM	CC(C(=O)N1CCCC1)n1cc(-c2ncnc3[nH]ccc23)cn1 (centres unmarked) [Compound 87]
< 100 nM	500 to 5000 nM	CC1CC[C@@H](C)N1C(=O)c1coc(-c2ncnc3[nH]ccc23)c1 (some centres unmarked) [Compound 197]
< 100 nM	< 100 nM	O=C(c1cc(-c2ncnc3[nH]cc(Cl)c23)c[nH]1)N(CC1CCC1)CC(F)(F)F [Compound 240]
< 100 nM	100 to 500 nM	C=CCN(CC=C)C(=O)c1cc(-c2ncnc3[nH]ccc23)co1 [Compound 245]
100 to 500 nM	100 to 500 nM	O=C(c1cc(-c2ncnc3[nH]ccc23)co1)N(CC1CCC1)CC(F)(F)F [Compound 251]
< 100 nM	< 100 nM	CC(C)CC(=O)Nc1nc(-c2ncnc3[nH]ccc23)cs1 [Compound 31]
< 100 nM	< 100 nM	O=C1CCC(C(=O)Nc2nc(-c3ncnc4[nH]ccc34)cs2)CC1 [Compound 65]
100 to 500 nM	100 to 500 nM	c1nc(-c2cn[nH]c2)c2cc[nH]c2n1 [Compound 5]
< 100 nM	100 to 500 nM	N#CCCN(CC1CCCO1)C(=O)c1cc(-c2ncnc3[nH]ccc23)c[nH]1 (centres unmarked) [Compound 136]
< 100 nM	< 100 nM	O=C1CCC(C(=O)Nc2nc(-c3ncnc4[nH]ccc34)cs2)C1 (centres unmarked) [Compound 167]
< 100 nM	< 100 nM	CC1CCC(C)N1C(=O)c1cc(-c2ncnc3[nH]ccc23)c[nH]1 (centres unmarked) [Compound 54]
< 100 nM	< 100 nM	CCN(Cc1ccncc1)C(=O)c1cc(-c2ncnc3[nH]ccc23)c[nH]1 [Compound 48]

Ki (JAK-2 enzyme)	Ki (JAK3)	SMILES
100 to 500 nM	100 to 500 nM	Nc1[nH]ncc1-c1ncnc2[nH]ccc12 [Compound 130]
< 100 nM	< 100 nM	O=C(CCc1ccccc1)Nc1nc(-c2ncnc3[nH]ccc23)cs1 [Compound 68]
< 100 nM	< 100 nM	C[C@@H]1CC[C@@H](C)N1C(=O)c1ccc(-c2ncnc3[nH]ccc23)o1 [Compound 126]
< 100 nM	< 100 nM	Cn1cc(-c2ncnc3[nH]ccc23)cc1C(=O)N(CCC#N)CC1CC1 [Compound 226]
< 100 nM	100 to 500 nM	COC(=O)C1C2C=CC(C2)C1C(=O)Nc1nc(-c2ncnc3[nH]ccc23)cs1 (centres unmarked) [Compound 155]
< 100 nM	100 to 500 nM	C=CCN(C(=O)c1ccc(-c2ncnc3[nH]ccc23)o1)[C@H](C)c1ccccc1 [Compound 220]
< 100 nM	< 100 nM	Cn1cc(-c2ncnc3[nH]ccc23)cc1C(=O)N(CCC(F)(F)F)CC1CC1 [Compound 225]
< 100 nM	100 to 500 nM	FC(F)(F)CCCn1cc(-c2ncnc3[nH]ccc23)cn1 [Compound 6]
< 100 nM	100 to 500 nM	CC(C)CN(CC(C)C)C(=O)c1cc(-c2ncnc3[nH]ccc23)c[nH]1 [Compound 28]
< 100 nM	< 100 nM	CC(C)CN(CCC#N)C(=O)c1cc(-c2ncnc3[nH]ccc23)c[nH]1 [Compound 187]
< 100 nM	100 to 500 nM	O=C(c1cc(-c2ncnc3[nH]ccc23)c[nH]1)N1CCCC1C(F)(F)F (centres unmarked) [Compound 53]
100 to 500 nM	100 to 500 nM	O=C(O)CCC(=O)Nc1nc(-c2ncnc3[nH]ccc23)cs1 [Compound 146]
500 to 5000 nM	100 to 500 nM	C=CC(=O)c1c[nH]c2ncnc(-c3ccoc3)c12 [Compound 253]
< 100 nM	< 100 nM	Cn1cc(-c2ncnc3[nH]ccc23)cc1C(=O)NCC(F)(F)F [Compound 235]
< 100 nM	100 to 500 nM	O=C(c1coc(-c2ncnc3[nH]ccc23)c1)N(CCC(F)(F)F)CC1CC1 [Compound 196]
< 100 nM	< 100 nM	O=C(CC1CC1)Nc1nc(-c2ncnc3[nH]ccc23)cs1 [Compound 70]
100 to 500 nM	< 100 nM	CC(C)CNC(=O)C(C)n1cc(-c2ncnc3[nH]ccc23)cn1 (centres unmarked) [Compound 74]
< 100 nM	100 to 500 nM	CN(Cc1cccnc1)C(=O)c1cc(-c2ncnc3[nH]ccc23)c[nH]1 [Compound 49]
100 to 500 nM	100 to 500 nM	CCC(CO)NC(=O)C(C)n1cc(-c2ncnc3[nH]ccc23)cn1 (centres unmarked) [Compound 82]
< 100 nM	< 100 nM	CC(C)CN(CCC#N)C(=O)c1ccc(-c2ncnc3[nH]ccc23)o1 [Compound 192]

Ki (JAK-2 enzyme)	Ki (JAK3)	SMILES
500 to 5000 nM	100 to 500 nM	CC(O)CNC(=O)C(C)n1cc(-c2ncnc3[nH]ccc23)cn1 (centres unmarked) [Compound 80]
< 100 nM	< 100 nM	CCCCC(CC)n1cc(-c2ncnc3[nH]ccc23)cn1 (centres unmarked) [Compound 92]
< 100 nM	< 100 nM	N#CCN(Cc1ccc(F)cc1)C(=O)c1cc(-c2ncnc3[nH]ccc23)c[nH]1 [Compound 112]
< 100 nM	< 100 nM	O=C(NCC(F)(F)F)c1cc(-c2ncnc3[nH]ccc23)c[nH]1 [Compound 7]
< 100 nM	< 100 nM	N#CCCN(CCC#N)C(=O)c1cc(-c2ncnc3[nH]ccc23)c[nH]1 [Compound 134]
500 to 5000 nM	500 to 5000 nM	CC(C(=O)NCC1CCCO1)n1cc(-c2ncnc3[nH]ccc23)cn1 (centres unmarked) [Compound 76]
100 to 500 nM	< 100 nM	CCN(CC)C(=O)C(C)n1cc(-c2ncnc3[nH]ccc23)cn1 (centres unmarked) [Compound 88]
100 to 500 nM	100 to 500 nM	Cn1cc(-c2ncnc3[nH]ccc23)cn1 [Compound 3]
< 100 nM	< 100 nM	C=CCN(C(=O)c1ccc(-c2ncnc3[nH]ccc23)o1)[C@@H](C)c1ccccc1 [Compound 222]
< 100 nM	100 to 500 nM	CC(=O)CCC(=O)Nc1nc(-c2ncnc3[nH]ccc23)cs1 [Compound 71]
< 100 nM	< 100 nM	CCCCN(CC#N)C(=O)c1cc(-c2ncnc3[nH]ccc23)c[nH]1 [Compound 19]
< 100 nM	100 to 500 nM	Cc1c[nH]c2ncnc(-c3c[nH]c(C(=O)N4C(C)C=CC4C)c3)c12 (centres unmarked) [Compound 204]
< 100 nM	< 100 nM	CC(C)CN(CCC#N)C(=O)c1cc(-c2ncnc3[nH]cc(Cl)c23)c[nH]1 [Compound 243]
< 100 nM	< 100 nM	O=C(Nc1nc(-c2ncnc3[nH]ccc23)cs1)C1CCCNC1 (centres unmarked) [Compound 176]
< 100 nM	100 to 500 nM	CC(C)CN(CCC(F)(F)F)C(=O)c1cc(-c2ncnc3[nH]cc(Cl)c23)c[nH]1 [Compound 244]
< 100 nM	100 to 500 nM	CC(C)CCn1cc(-c2ncnc3[nH]cc(Cl)c23)cn1 [Compound 164]
< 100 nM	< 100 nM	N#CCN(Cc1cccc(Cl)c1)C(=O)c1cc(-c2ncnc3[nH]ccc23)c[nH]1 [Compound 113]
< 100 nM	100 to 500 nM	CCC1CC[C@@H](CC)N1C(=O)c1cc(-c2ncnc3[nH]ccc23)c[nH]1 (some centres unmarked) [Compound 184]
